According to patent US8119661B2, “Piperidine derivatives and their use as muscarinic receptor modulators” (AstraZeneca AB, priority 2007, dated 2012):

Test system: SNL rats (heat hyperalgesia)
Experiment: Rat SNL heat hyperalgesia assay
Type: in vivo
Conditions: sc, male Sprague Dawley SNL rats, paw withdrawal latency, morphine s.c. 30 min before testing, example 2 per os 60 min before testing, combination ratio example 2:morphine 1:1.56
Experimental: Rats undergo spinal nerve ligation surgery as described in Kim and Chung (1992) (reference 1). Briefly, rats are anesthetized with isoflurane, the left L5 and L6 are isolated and tightly ligated with 4-0 silk thread. The wound is closed by suturing and applying tissue adhesive. Compound testing is performed at day 9 to day 36 post-surgery.
For behavioral testing, the animals are acclimatized to the test room environment for a minimum of 30 min. In order to assess the degree of hyperalgesia, the animals are placed on a glass surface (maintained at 30° C.), and a heat-source is focused onto the plantar surface of the left paw. The time from the initiation of the heat until the animal withdraws the paw is recorded. Each animal is tested twice (with an interval of 10 min between the two tests). A decrease in Paw Withdrawal Latency (PWL, average of the two tests) relative to naïve animals indicates a hyperalgesic state. The rats with a PWL of at least 2 seconds less than average PWL of Naïve group are selected for compound testing. […]
In order to assess the degree of heat hyperalgesia, the rats were individually placed in Plexiglas boxes on the glass surface (maintained at 30° C.) of a paw thermal stimulator system (Model 390, series 8, IITC Life Science, Woodland Hills, USA) and allowed to acclimate for 30 min. […] Paw withdrawal latencies (PWLs) were calculated as the mean of the two values.

In the case of CC(C)OC(=O)N1CCC(C)(N2CCC(N3C(=O)N[C@H]4CCCC[C@@H]43)CC2)CC1 [Example 02, Propan-2-yl 4-[4-[(3aS,7aS)-2-oxo-3a,4,5,6,7,7a-hexahydro-3H-benzoimidazol-1-yl]-1-piperidyl]-4-methyl-piperidine-1-carboxylate], the ED50 was 2.4 µmol/kg.
